Laboratory results: patent publication US20070117839A1, “Two cyclic cinnamide compound” (Eisai R&D Management Co., Ltd., priority 2005, published 2007)

tested on: Aβ 42 Production; experiment: Quantification of Aβ peptide in culture of neurons from rat fetus brain (Aβ ELISA); type: cell-based; conditions: Neuron, 72 h; rat primary neuronal culture (embryonic day 18 Wistar rat cerebral cortex), cultured three days after addition of the compound, Aβx-42 ELISA of the medium; read-out: Activity for reducing Aβ 42 Production IC50
Experimental: Quantification of Aβ Peptide in Culture of Neurons from Rat Fetus Brain
(1) Rat Primary Neuronal Culture
Primary neuronal cultures were prepared from the cerebral cortex of embryonic day 18 Wistar rats (Charles River Japan, Yokohama, Japan). Specifically, the embryos were aseptically removed from pregnant rats under ether anesthesia. The brain was isolated from the embryo and immersed in an ice-cold L-15 medium (Invitrogen Corp. Cat #11415-064, Carlsbad, Calif., USA, or SIGMA L1518, for example). The cerebral cortex was collected from the isolated brain under a stereoscopic microscope. The cerebral cortex fragments collected were enzymatically treated in an enzyme solution containing 0.25% trypsin (Invitrogen Corp. Cat #15050-065, Carlsbad, Calif., USA) and 0.01% DNase (Sigma D5025, St. Louis, Mo., USA) at 37° C. for 30 minutes to disperse the cells. Here, the enzymatic reaction was stopped by adding inactivated horse serum to the solution. The enzymatically treated solution was centrifuged at 1,500 rpm for five minutes to remove the supernatant. 5 to 10 mL of a medium was added to the resulting cell mass. Neurobasal medium (Invitrogen Corp. Cat #21103-049, Carlsbad, Calif., USA) supplemented with 2% B27 supplement (Invitrogen Corp. Cat #17504-044, Carlsbad, Calif., USA), 25 μM 2-mercaptoethanol (2-ME, WAKO Cat #139-06861, Osaka, Japan), 0.5 mM L-glutamine (Invitrogen Corp. Cat #25030-081, Carlsbad, Calif., USA), and Antibiotics-Antimycotics (Invitrogen Corp. Cat #15240-062, Carlsbad, Calif., USA) was used as the medium (Neurobasal/B27/2-ME). However, the above Neurobasal medium not supplemented with 2-ME (Neurobasal/B27) was used for the assay. The cells were redispersed by mild pipetting of the cell mass to which the medium was added. The cell dispersion was filtered through a 40-μm nylon mesh (Cell Strainer, Cat #35-2340, Becton Dickinson Labware, Franklin Lakes, N.J., USA) to remove the remaining cell mass, and thus a neuronal cell suspension was obtained. The neuronal cell suspension was diluted with the medium and then plated in a volume of 100 μl/well at an initial cell density of 5×10^5 cells/cm^2 in a 96-well polystyrene culture plate pre-coated with poly-L or D-lysine (Falcon Cat #35-3075, Becton Dickinson Labware, Franklin Lakes, N.J., USA coated with poly-L-lysine using the method shown below, or BIOCOAT™ cell environments Poly-D-lysine cell ware 96-well plate, Cat #35-6461, Becton Dickinson Labware, Franklin Lakes, N.J., USA). Poly-L-lysine coating was carried out as follows. 100 μg/ml of a poly-L-lysine (SIGMA P2636, St. Louis, Mo., USA) solution was aseptically prepared with a 0.15 M borate buffer (pH 8.5). 100 μl/well of the solution was added to the 96-well polystyrene culture plate and incubated at room temperature for one or more hours or at 4° C. overnight or longer. The coated 96-well polystyrene culture plate was washed with sterile water four or more times, and then dried or rinsed with, for example, sterile PBS or medium, and used for cell plating. The plated cells were cultured in the culture plate at 37° C. in 5% CO2-95% air for one day. Then, the total amount of the medium was replaced with a fresh Neurobasal/B27/2-ME medium, and then the cells were cultured for further three days.
The drug was added to the culture plate on Day 4 of culture as follows. The total amount of the medium was removed from the wells, and 180 μl/well of Neurobasal medium not containing 2-ME and containing 2% B-27 (Neurobasal/B27) was added thereto. A solution of the test compound in dimethyl sulfoxide (hereinafter abbreviated as DMSO) was diluted with Neurobasal/B27 at 10-fold of the final concentration. 20 μl/well of the dilution was added to and sufficiently mixed with the medium. The final DMSO concentration was 1% or less. Only DMSO was added to the control group.
The cells were cultured for three days after addition of the compound, and the total amount of the medium was collected. […]

SMILES	IC50 [µM]
COc1cc(/C=C2\CC[C@@H]3CCC[C@@H](c4cc(F)c(F)c(F)c4)N3C2=O)ccc1-n1cnc(C)c1 [Example 13, (E)-(6S,9aS)-6-(3,4,5-trifluorophenyl)-3-[3-methoxy-4-(4-methyl-1H-imidazol-1-yl)benzylidene]octahydroquinolizin-4-one]	0.091
COc1cc(/C=C2\CC[C@@H]3CCC[C@@H](c4ccc(F)cc4)N3C2=O)ccc1-n1cnc(C)c1 [Example 19, (E)-(6S,9aS)-6-(4-fluorophenyl)-3-[3-methoxy-4-(4-methyl-1H-imidazol-1-yl)benzylidene]octahydroquinolizin-4-one]	0.129
COc1cc(/C=C2\CC[C@@H]3CC(C)=C[C@@H](c4ccc(F)cc4)N3C2=O)ccc1-n1cnc(C)c1 [Example 49, (E)-(6S,9aR)-6-(4-fluorophenyl)-3-[3-methoxy-4-(4-methyl-1H-imidazol-1-yl)benzylidene]-8-methyl-1,2,3,6,9,9a-hexahydroquinolizin-4-one]	0.21
COc1cc(/C=C2\CC[C@@H]3CCC[C@@H](c4ccc(F)c(F)c4)N3C2=O)ccc1-n1cnc(C)c1 [Example 65, (E)-(6S,9aS)-6-(3,4-difluorophenyl)-3-[3-methoxy-4-(4-methyl-1H-imidazol-1-yl)benzylidene]octahydroquinolizin-4-one]	0.068
COc1cc(/C=C2\CC[C@@H]3C[C@@](C)(O)C[C@@H](c4ccc(F)cc4)N3C2=O)ccc1-n1cnc(C)c1 [Example 45, (E)-(6S,8R,9aR)-6-(4-fluorophenyl)-8-hydroxy-3-[3-methoxy-4-(4-methyl-1H-imidazol-1-yl)benzylidene]-8-methyloctahydroquinolizin-4-one]	0.16
COc1cc(/C=C2\CC[C@H]3CCC[C@@H](c4ccc(F)cc4)N3C2=O)ccc1-n1cnc(C)c1 [Example 8, (E)-(6S,9aR)-6-(4-fluorophenyl)-3-[3-methoxy-4-(4-methyl-1H-imidazol-1-yl)benzylidene]octahydroquinolizin-4-one]	0.073
COc1cc(/C=C2\CC[C@H]3CC[C@@H](c4ccc(F)c(F)c4F)N3C2=O)ccc1-n1cnc(C)c1 [Example 58, (E)-(3S,8aS)-3-(2,3,4-trifluorophenyl)-6-[3-methoxy-4-(4-methyl-1H-imidazol-1-yl)benzylidene]hexahydroindolizin-5-one]	0.073
COc1ccc([C@@H]2CCC[C@@H]3CC/C(=C\c4ccc(-n5cnc(C)c5)c(OC)c4)C(=O)N32)cc1 [Example 30, (E)-(6S,9aR)-3-[3-methoxy-4-(4-methyl-1H-imidazol-1-yl)benzylidene]-6-(4-methoxyphenyl)octahydroquinolizin-4-one]	0.109
COc1cc(/C=C2\CC[C@H]3CCC[C@@H](c4ccc(Cl)cc4)N3C2=O)ccc1-n1cnc(C)c1 [Example 92, (6S,9aR)-6-(4-chlorophenyl)-3-{1-[3-methoxy-4-(4-methyl-1H-imidazol-1-yl)phenyl]-(E)-methylidene}octahydroquinolizin-4-one]	0.04
COc1cc(/C=C2\CC[C@H]3CCC[C@@H](c4cc(F)c(F)c(F)c4)N3C2=O)ccc1-n1cnc(C)c1 [Example 91, (6S,9aR)-6-(3,4,5-trifluorophenyl)-3-{1-[3-methoxy-4-(4-methyl-1H-imidazol-1-yl)phenyl]-(E)-methylidene}octahydroquinolizin-4-one]	0.033
COc1cc(/C=C2\CC[C@H]3CC[C@@H](c4ccc(F)c(F)c4)N3C2=O)ccc1-n1cnc(C)c1 [Example 6, (E)-(3S)-(3,4-difluorophenyl)-6-[3-methoxy-4-(4-methyl-1H-imidazol-1-yl)benzylidene]-(9S)-hexahydroindolizin-5-one]	0.12
COc1cc(/C=C2\CC[C@H]3CCC[C@@H](c4ccccc4F)N3C2=O)ccc1-n1cnc(C)c1 [Example 43, (E)-(6S,9aR)-6-(2-fluorophenyl)-3-[3-methoxy-4-(4-methyl-1H-imidazol-1-yl)benzylidene]octahydroquinolizin-4-one]	0.066
COc1cc(/C=C2\CC[C@@H]3C[C@H](O)C[C@@H](c4cc(F)c(F)c(F)c4)N3C2=O)ccc1-n1cnc(C)c1 [Example 15, (E)-(6S,8S,9aR)-6-(3,4,5-trifluorophenyl)-8-hydroxy-3-[3-methoxy-4-(4-methyl-1H-imidazol-1-yl)benzylidene]octahydroquinolizin-4-one]	0.08
COc1cc(/C=C2\CC[C@H]3CC[C@@H](c4cc(F)c(F)cc4F)N3C2=O)ccc1-n1cnc(C)c1 [Example 57, (E)-(3S,8aS)-3-(2,4,5-trifluorophenyl)-6-[3-methoxy-4-(4-methyl-1H-imidazol-1-yl)benzylidene]hexahydroindolizin-5-one]	0.062
COc1cc(/C=C2\CC[C@@H]3CCC[C@H](c4ccccc4F)N3C2=O)ccc1-n1cnc(C)c1 [Example 44, (E)-(6R,9aS)-6-(2-fluorophenyl)-3-[3-methoxy-4-(4-methyl-1H-imidazol-1-yl)benzylidene]octahydroquinolizin-4-one]	0.094
COc1cc(/C=C2\CC[C@H]3CC[C@@H](c4cc(F)cc(F)c4)N3C2=O)ccc1-n1cnc(C)c1 [Example 64, (E)-(3S,8aS)-3-(3,5-difluorophenyl)-6-[3-methoxy-4-(4-methyl-1H-imidazol-1-yl)benzylidene]hexahydroindolizin-5-one]	0.067
COc1cc(/C=C2\C[C@H]3CC[C@@H](c4ccc(F)c(F)c4)N3C2=O)ccc1-n1cnc(C)c1 [Example 54, (E)-(5S,7aR)-5-(3,4-difluorophenyl)-2-[3-methoxy-4-(4-methyl-1H-imidazol-1-yl)benzylidene]hexahydropyrrolidin-3-one]	0.254
COc1cc(/C=C2\CC[C@H]3CN(C)C[C@@H](c4cc(F)c(F)c(F)c4)N3C2=O)ccc1-n1cnc(C)c1 [Example 110, (4R,9aS)-7-{1-[3-methoxy-4-(4-methyl-1H-imidazol-1-yl)phenyl]-(E)-methylidene}-2-methyl-4-(3,4,5-trifluorophenyl)octahydropyrido[1,2-a]pyrazin-6-one]	0.029
COc1cc(/C=C2\CC[C@H]3CCC[C@@H](c4ccc(F)c(F)c4)N3C2=O)ccc1-n1cnc(C)c1 [Example 90, (6S,9aR)-6-(3,4-difluorophenyl)-3-{1-[3-methoxy-4-(4-methyl-1H-imidazol-1-yl)phenyl]-(E)-methylidene}octahydroquinolizin-4-one]	0.039
COc1cc(/C=C2\CC[C@H]3CC[C@@H](c4c(F)cc(F)cc4F)N3C2=O)ccc1-n1cnc(C)c1 [Example 89, (3S,8aS)-6-{1-[3-methoxy-4-(4-methyl-1H-imidazol-1-yl)phenyl]-(E)-methylidene}-3-(2,4,6-trifluorophenyl)hexahydroindolizin-5-one]	0.088
COc1cc(/C=C2\CC[C@H]3COC[C@@H](c4ccc(F)c(F)c4)N3C2=O)ccc1-n1cnc(C)c1 [Example 95, (4R,9aS)-4-(3,4-difluorophenyl)-7-{1-[3-methoxy-4-(4-methyl-1H-imidazol-1-yl)phenyl]-(E)-methylidene}hexahydropyrido[2,1-c][1,4]oxazin-6-one]	0.087
